# Reference: US20050124618A1, “Methods of modulating angiogenesis and cancer cell proliferation” (priority 2003, published 2005)
# Entries after “also recorded” stand apart in the source; their conditions may differ.
# Tests used:
# 20-HETE = settings: cited from earlier work
# U251 human glioma cells = assay: U251 cell proliferation assay (cell counting); format: cell-based; settings: for increase of U251 cell proliferation: 1 μM agonist, 48 hr, serum-starved
# Protocol: Culture Conditions: Cells were routinely maintained in DMEM (Invitrogen) supplemented with 10% heat-inactivated fetal bovine serum (FBS), penicillin (10 IU/ml), streptomycin (10 μg/ml) and 10% non-essential amino acids (all purchased from Invitrogen). Cells were maintained at 37° C. in a humidified incubator containing 5% CO2. They were grown in medium containing 10% FBS, which was then replaced with serum-free medium where U251 cells grow exponentially. Treatments were initiated one day after serum removal.
# Cell Proliferation Assays: Proliferation studies were performed with cultures plated at a density that ensured exponential growth for at least 5 days. Growth medium was generally replaced by serum-free medium 24 hr after plating. Cells were treated with various concentrations of a given compounds for 24 or 48 hr as described in the Methods. […] Organic solvent never exceeded 0.1% of total culture volume. Cells were harvested by exposure to 0.05% trypsin/EDTA and counted using a hemocytometer.
# rat cornea = assay: Rat cornea pocket angiogenesis assay (growth factor pellets); format: in vivo; settings: for angiogenic response to growth factor alone: 250 ng growth factor per pellet
# Protocol: (i) Preparation of sustained-release polymer: Sustained-release polymer pellets were prepared by making a 1:1 mix of a 12% solution in ethanol of the polymer (Hydron polyhydroxyethylmethacrylate), with saline containing the growth factors. The growth factors bFGF, VEGF, and EGF were dissolved at a concentration of 125 ng/μl. […] 2 μl of these solutions were added to each pellet. Thus, a pellet containing 250 ng of a single growth factor was implanted at random in the right or left eye. The other eye was implanted with a pellet containing the same dose of growth factor+HET0016. In some rats the pellet contained VEGF alone and VEGF+DDMS. 20 μg of the stable 20-HETE agonist analog WIT003 was implanted in one eye to determine whether it induces angiogenesis. […] 9 μl of the 1:1 Hydron/treatment mixture was placed on the ends of 1.5-cm rods. Each pellet contained 250 ng of its respective growth factor. For bFGF we used sucralfate to stabilize and allow sustained release of this growth factor (Volkin D B et al., Biochim Biophys Acta 1993, 1203:18-26). After drying the pellets for 1 hour, they were ready to be implanted into the cornea of rats.
# (ii) Pellet implantation: The rats were anesthetized IM with ketamine (80 mg/kg) and xylazine (10 mg/kg). The eyes were topically anesthetized with 0.5% proparacaine (Ophthetic, Alcon, Tex.) and the globes proptosed with a jeweler's forceps. Using an operating microscope, a central intrastromal linear keratotomy, approximately 1.5 mm in length, was performed with a surgical blade (Bard-Parker #11; Becton Dickinson, Franklin Lake, N.Y.) parallel to the insertion of the lateral rectus muscle. A curved iris spatula (No. 10093-13, Fine Science Tools, Belmont, Calif.) approximately 1.5 mm wide and 5 mm long was inserted under the lip of the incision and gently pushed through the stroma toward the temporal limbus of the eye. The distance between the limbus and the base of the pocket was kept at 1.0±0.1 mm. The pellet was advanced to the temporal end of the pocket. Antibiotic ointment (erythromycin) was applied to the anterior surface of the eye.
# (iv) Quantitation of corneal neovascularization: Seven days after pellet implantation, the rats were deeply anesthetized as previously described with ketamine and xylazine. The left ventricle was cannulated and the animal was perfused with 20-25 ml saline through the left ventricle followed by 20-25 ml India ink (waterproof drawing ink, Sanford, Bellwood, Ill.). The eyes were marked for orientation, enucleated and placed in 4% formalin for 24 hours. The cornea was dissected free from the surrounding globe and underlying iris, bisected, and loosely mounted between two glass slides, thus gently flattening the cornea. These flat mounts were examined microscopically using a Nikon Diaphot Epi-fluor 2 microscope attached to a CCD video camera and the images were digitized and saved using a computer.
# Neovascularization was determined by comparing total vessel length in the control and experimental eyes. Vessel length was determined by tracing each vessel from the limbus to the pellet. Total length is the sum of these values in pixels and was determined using conventional image analysis software (Sigma Scan Pro, SPSS, Chicago, Ill.)
# HUVECs = HUVECs proliferation assay (CellTiter96 AQueous One); format: cell-based, human
# Protocol: HUVECs were seeded onto a 96-well plate at 1×10^4 cells/well. […] Organic solvent concentration never exceeded 0.1% of total culture volume. […] 20 μl of Aqueous One reagent was added to the 100 μl medium in each well. The plates were incubated for 2 hours at 37° C. in a humidified incubator. Absorbance was recorded at 490 nm using a 96-well Bio Kinetics Reader EL340 (Bio-TEK, Winooski, Vt.). The data represent changes in percent absorbance of treated cultures compared with control cells. Three different experiments were carried out, and each point was determined in triplicate.
# 9L rat gliosarcoma cells = assay: 9L cell proliferation assay (cell counting); format: cell-based
# Protocol: Culture Conditions: 9L rat gliosarcoma cells were purchased from ATC (Gaithersburg, Md.) and were maintained in DMEM (Invitrogen) supplemented with 10% heat-inactivated fetal bovine serum (FBS), penicillin (10 IU/ml), streptomycin (10 μg/ml) and 10% non-essential amino acids (all purchased from Invitrogen). Cells were maintained at 37° C. in a humidified incubator containing 5% CO2. They were grown in medium containing 10% FBS, which was then replaced with serum-free medium (give type and source) where 9L cells grow exponentially.
# Cell Proliferation Assays: Proliferation studies were performed with cultures plated at a density that ensured exponential growth for at least 5 days. Growth medium were generally replaced by serum free medium 24 hr after plating. […] The concentration of the ethanol added to the media never exceeded 0.1%. Cells were harvested by exposure to a solution of 0.05% Trypsin/EDTA and counted using a hemocytometer.
# [1] = up to 40 μg palmitic acid per pellet
molecule,measurement,setting,value
"C#CCCCCCCCCCCCCCCCC(=O)O [17-ODYA, 17-Octadecynoic acid]",ability to reduce 20-HETE levels in vivo,20-HETE,reduce 20-HETE levels in vivo
"O=C(O)CCC/C=C\CCCCCCC/C=C\CCCCCO [20-hydroxyeicosa-5(Z),14(Z)-dienoic acid]",reversal of HET0016 blockade of U251 cell proliferation,U251 human glioma cells; 1 μM 20-HETE agonist + HET0016,about 70%
same,increase of U251 cell proliferation,U251 human glioma cells,about 20%
"O=C(O)CCCC/C=C\CCCCCCC/C=C\CCCCO [WIT003, 20-hydroxyeicosa-6(Z),15(Z)-dienoic acid]",angiogenic response to the 20-HETE analog alone,"rat cornea; 20 μg WIT003 per pellet, 7 days",induced an angiogenic response
same,effect on proliferation of HUVECs,"HUVECs; 1 μM WIT003, 48 hours",increased the proliferation rate; also recorded: increased proliferation of the cells
same,stimulation of 9L proliferation compared with EGF,9L rat gliosarcoma cells; 1 μM WIT003,A similar degree of stimulation
same,rescue of 9L cells from the inhibitory actions of HET0016,9L rat gliosarcoma cells; 1 μM WIT003 + 10 μM HET0016,partially rescued
same,stimulatory effect on proliferation of U251 cells,"U251 human glioma cells; 0.1 μM WIT003, 48 hr",has no more stimulatory effect on proliferation of U251 cells than 50 ng/ml EGF
same,rescue of U251 cells from the anti-proliferative effects of HET0016,"U251 human glioma cells; 1 μM WIT003 + 10 μM HET0016, 48 h",reverses the effects of HET0016; also recorded: can rescue
same,"U251 proliferation with WIT003 and HET0016, increase above HET0016 alone","U251 human glioma cells; 1 μM WIT003 + 10 μM HET0016, 2 days",about 70%
same,U251 growth stimulation compared with EGF,"U251 human glioma cells; 1 μM WIT003, 48 h",comparable to the growth stimulating effect induced by 200 ng/ml EGF; also recorded: as much as 200 ng/ml EGF
same,increase of U251 cell proliferation,U251 human glioma cells,20%
CCCCCCCCCCCCCCCC(=O)O [palmitic acid],angiogenic effect of fatty acid control alone,rat cornea; [1],had no effect by itself
same,influence of fatty acid control on angiogenic responses to VEGF,rat cornea; [1],no difference in angiogenic responses to VEGF
same,influence of fatty acid control on angiogenic responses to VEGF,"rat cornea; up to 40 μg palmitic acid per pellet, listed as Palmitic acid",showed no ability to influence angiogenic responses to VEGF
"EGF: epidermal growth factor, positive control for proliferation",angiogenic response to growth factor alone,rat cornea,Vigorous angiogenic responses
same,increase of proliferation of 9L cells,9L rat gliosarcoma cells; EGF 200 ng/ml,about 30%
same,effect on number of 9L cells,"9L rat gliosarcoma cells; EGF 200 ng/ml, 24 and 48 hrs",increased the number of cells
VEGF,angiogenic response to growth factor alone,rat cornea,marked neovascularization response; also recorded: Vigorous angiogenic responses
same,effect on proliferation of HUVECs,HUVECs; 250 ng/ml VEGF alone,stimulated proliferation
"bFGF: basic fibroblast growth factor, purchased from R&D Systems",angiogenic response to growth factor alone,rat cornea,Vigorous angiogenic responses
